# Laboratory results taken from ChEMBL document CHEMBL5528054, “Novel Cocrystal Structures of Peptide Antagonists Bound to the Human Melanocortin Receptor 4 Unveil Unexplored Grounds for Structure-Based Drug Design” (J Med Chem, 2024).
# Activity calls are given as the source filed them. The rule behind the calls is not given here.
# Experiments:
# Melanocortin receptor 4 = Melanocortin receptor 4 (Homo sapiens, UniProt P32245); experiment: Antagonist activity at C-terminal HA-tagged human MC4-R stably expressed in HEK293 cells co-expressing GScAMP22P cAMP reporter assessed as inhibition of alpha-MSH induced cAMP production by cell based luminescence assay; type: functional
# [1] = molecular target: T1, Melanocyte-stimulating hormone receptor (Homo sapiens, UniProt Q01726); experiment: Partial agonist activity at C-terminal HA-tagged human MC1-R stably expressed in HEK293 cells co-expressing GScAMP22P cAMP reporter assessed as inhibition of alpha-MSH induced cAMP production by cell based luminescence assay relative to control; type: functional; set-up: concentration or dose not given beside the values; conditions: filed as partial agonist, concentration not given here
# Target sequence in this assay (Q01726 whole entry, looked up): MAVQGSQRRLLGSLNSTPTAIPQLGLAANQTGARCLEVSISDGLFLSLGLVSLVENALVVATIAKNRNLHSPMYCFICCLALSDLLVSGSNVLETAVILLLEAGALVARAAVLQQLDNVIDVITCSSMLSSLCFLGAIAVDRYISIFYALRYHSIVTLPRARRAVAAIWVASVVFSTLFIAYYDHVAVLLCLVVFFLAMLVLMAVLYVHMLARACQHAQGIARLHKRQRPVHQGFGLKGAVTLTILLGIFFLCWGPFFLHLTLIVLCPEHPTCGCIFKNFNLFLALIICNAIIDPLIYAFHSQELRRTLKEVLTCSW
# HEK293 [2] = experiment: Selectivity ratio of IC50 for C-terminal HA-tagged human MC4-R stably expressed in HEK293 cells co-expressing GScAMP22P cAMP reporter assessed as inhibition of alpha-MSH induced cAMP production to IC50 for C-terminal HA-tagged human MC3-R stably expressed in HEK293 cells co-expressing GScAMP22P cAMP reporter assessed as inhibition of alpha-MSH induced cAMP production; type: cell-based
# HEK293 [3] = experiment: Selectivity ratio of IC50 for C-terminal HA-tagged human MC1-R stably expressed in HEK293 cells co-expressing GScAMP22P cAMP reporter assessed as inhibition of alpha-MSH induced cAMP production to IC50 for C-terminal HA-tagged human MC4-R stably expressed in HEK293 cells co-expressing GScAMP22P cAMP reporter assessed as inhibition of alpha-MSH induced cAMP production; type: cell-based
# Melanocortin receptor 3 = Melanocortin receptor 3 (Homo sapiens, UniProt P41968); experiment: Antagonist activity at C-terminal HA-tagged human MC3-R stably expressed in HEK293 cells co-expressing GScAMP22P cAMP reporter assessed as inhibition of alpha-MSH induced cAMP production by cell based luminescence assay; type: functional
# [4] = molecular target: T1, Melanocyte-stimulating hormone receptor; experiment: Partial agonist activity at C-terminal HA-tagged human MC1-R stably expressed in HEK293 cells co-expressing GScAMP22P cAMP reporter assessed as inhibition of alpha-MSH induced cAMP production by cell based luminescence assay; type: functional
# Target sequence in this assay (Q01726 whole entry): as the sequence (Q01726 whole entry, looked up) above
# HEK293 [5] = experiment: Selectivity ratio of IC50 for C-terminal HA-tagged human MC4-R stably expressed in HEK293 cells co-expressing GScAMP22P cAMP reporter assessed as inhibition of alpha-MSH induced cAMP production to IC50 for C-terminal HA-tagged human MC1-R stably expressed in HEK293 cells co-expressing GScAMP22P cAMP reporter assessed as inhibition of alpha-MSH induced cAMP production; type: cell-based
# T-REx-293 = experiment: Inhibition of Kir7.1 […] mutant (unknown origin) expressed in human T-REx-293 cells co-expressing human MC4-R assessed as decrease in K+ conductance at 10 uM incubated for 24 hrs by high-throughput automated patch clamp analysis; type: cell-based
# Mus musculus [6] = experiment: In vivo activation of Kir7.1 channel in cannulated C57BL/6J mouse assessed as increase in food intake at 500 pM,ICV administration for 7 days; type: functional; conditions: time 7.0 day
# Mus musculus [7] = experiment: In vivo activation of Kir7.1 channel in cannulated C57BL/6J mouse assessed as increase in food intake at 500 pM,ICV administration and measured after 6 hrs; type: functional
# Mus musculus [8] = experiment: In vivo activation of Kir7.1 channel in cannulated C57BL/6J mouse assessed as increase in food intake at 500 pM,ICV administration and measured upto 24 hrs; type: functional
# Mus musculus [9] = experiment: In vivo activation of Kir7.1 channel in cannulated C57BL/6J mouse assessed as increase in food intake at 500 pM,ICV administration and measured after 4 hrs; type: functional
# [10] = system: Melanocortin receptor 4 (Homo sapiens), P32245 [E100A]; experiment: Agonist activity at N-terminal fused BRIL-Flag tagged human MC4-R E100A mutant transiently transfected in HEK293 cells assessed as fold change in cAMP accumulation by ELISA; type: cell-based; conditions: filed as agonist
# [11] = system: Melanocortin receptor 4 (Homo sapiens), P32245 [D126A]; experiment: Agonist activity at N-terminal fused BRIL-Flag tagged human MC4-R D126A mutant transiently transfected in HEK293 cells assessed as fold change in cAMP accumulation by ELISA; type: cell-based; conditions: filed as agonist
# [12] = system: Melanocortin receptor 4 (Homo sapiens), P32245 [D122A]; experiment: Agonist activity at N-terminal fused BRIL-Flag tagged human MC4-R D122A mutant transiently transfected in HEK293 cells assessed as fold change in cAMP accumulation by ELISA; type: functional, cell-based; conditions: filed as agonist
# HEK293 [13] = experiment: Selectivity ratio of EC50 for agonist activity at N-terminal FLAG tagged MC4-R (unknown origin) transiently transfected in HEK293 cells to EC50 for agonist activity at N-terminal FLAG tagged MC1-R (unknown origin) transiently transfected in HEK293 cells; type: cell-based
# Chain of Melanocortin receptor 3 (P41968 whole entry): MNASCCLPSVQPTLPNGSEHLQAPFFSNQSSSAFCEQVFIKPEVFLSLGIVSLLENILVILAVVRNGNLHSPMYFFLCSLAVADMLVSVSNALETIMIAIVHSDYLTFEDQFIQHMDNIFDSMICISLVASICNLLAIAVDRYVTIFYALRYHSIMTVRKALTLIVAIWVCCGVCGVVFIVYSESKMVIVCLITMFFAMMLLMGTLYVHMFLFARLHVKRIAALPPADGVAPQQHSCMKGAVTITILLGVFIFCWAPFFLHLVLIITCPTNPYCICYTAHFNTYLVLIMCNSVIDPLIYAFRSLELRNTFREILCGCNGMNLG
# Chain of Melanocortin receptor 4 (P32245 whole entry): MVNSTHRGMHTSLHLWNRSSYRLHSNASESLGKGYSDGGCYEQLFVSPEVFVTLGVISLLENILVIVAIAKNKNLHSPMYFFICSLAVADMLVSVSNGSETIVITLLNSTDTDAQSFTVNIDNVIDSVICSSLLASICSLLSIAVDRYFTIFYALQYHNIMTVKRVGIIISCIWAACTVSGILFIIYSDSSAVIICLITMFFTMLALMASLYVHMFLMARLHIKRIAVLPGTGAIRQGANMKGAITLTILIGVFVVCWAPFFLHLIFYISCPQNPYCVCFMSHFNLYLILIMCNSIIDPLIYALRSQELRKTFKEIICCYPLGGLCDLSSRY
# Chain of Melanocortin receptor 4 (Homo sapiens), P32245 [D126A] (P32245 whole entry D126A, the tested form may be a part): as the sequence (P32245 whole entry) above, with D126A counted along it
# Chain of Melanocortin receptor 4 (Homo sapiens), P32245 [E100A] (P32245 whole entry E100A, the tested form may be a part): as the sequence (P32245 whole entry) above, with E100A counted along it
# Chain of Melanocortin receptor 4 (Homo sapiens), P32245 [D122A] (P32245 whole entry D122A, the tested form may be a part): as the sequence (P32245 whole entry) above, with D122A counted along it
Compound,IC50 (Melanocortin receptor 4; read-out: IC50) [nM],inhibition [1] [%],IC50 (Melanocortin receptor 3; read-out: IC50) [nM],IC50 [4] [nM],Ratio IC50 (HEK293 [2]),Ratio IC50 (HEK293 [5]),further results
CCCC[C@H](NC(C)=O)C(=O)N[C@H]1CC(=O)NCCCC[C@@H](C(N)=O)NC(=O)[C@H](CCCNC(=N)N)NC(=O)[C@H](Cc2c[nH]c3ccccc23)NC(=O)[C@H](CCCNC(=N)N)NC(=O)[C@@H](Cc2ccc3ccccc3c2)NC(=O)[C@@H]2CCCN2C1=O,–,86.8,–,299,–,–,inhibition (T-REx-293): Active
CCCCC(NC(C)=O)C(=O)N[C@H]1CC(=O)NCCCC[C@@H](C(N)=O)NC(=O)CNC(=O)[C@H](Cc2c[nH]c3ccccc23)NC(=O)[C@H](CCCNC(=N)N)NC(=O)[C@@H](Cc2ccc3ccccc3c2)NC(=O)[C@@H]2C[C@@H](n3cc(C(C)(C)N)nn3)CN2C1=O (some centres undefined),–,86.7,–,–,16.7,0.4,Activity (Mus musculus [6]): Active; Activity (Mus musculus [7]): Active
CCCC[C@H](NC(C)=O)C(=O)N[C@H]1CC(=O)NCCCC[C@@H](C(N)=O)NC(=O)CNC(=O)[C@H](Cc2c[nH]c3ccccc23)NC(=O)[C@H](CCCN=C(N)N)NC(=O)[C@@H](Cc2ccc3ccccc3c2)NC(=O)[C@@H]2CCCN2C1=O,–,89.2,5.08,12,–,–,IC50 (Melanocortin receptor 3; read-out: pIC50 (converted)): 5.5 nM; inhibition (T-REx-293): Active
CCCC[C@H](NC(C)=O)C(=O)N[C@H]1CC(=O)NCCCC[C@@H](C(N)=O)NC(=O)CNC(=O)[C@H](Cc2c[nH]c3ccccc23)NC(=O)[C@H](CCCNC(=N)N)NC(=O)[C@@H](Cc2ccc3ccccc3c2)NC(=O)[C@@H]2C[C@H](n3cc(C(C)(C)N)nn3)CN2C1=O,5.01,83.8,34.3,2.53,6.8,0.5,Activity (Mus musculus [8]): inactive; Activity (Mus musculus [9]): inactive
CCCCC(NC(C)=O)C(=O)N[C@H]1CC(=O)NCCCC[C@@H](C(N)=O)NC(=O)CNC(=O)[C@H](Cc2c[nH]c3ccccc23)NC(=O)[C@H](CCCNC(=N)N)NC(=O)[C@@H](Cc2ccc3ccccc3c2)NC(=O)[C@@H]2C[C@@H](n3cc(CCCNC(=N)N)nn3)CN2C1=O (some centres undefined),–,84.7,–,–,5.8,0.1,–
CC(=O)N[C@@H](CCCNC(=N)N)C(=O)N[C@H]1CSSC[C@@H](C(N)=O)NC(=O)[C@H](Cc2c[nH]c3ccccc23)NC(=O)[C@H](CCCNC(=N)N)NC(=O)[C@@H](Cc2ccccc2)NC(=O)[C@H](Cc2c[nH]cn2)NC(=O)[C@@H](C)NC1=O,–,–,–,–,–,–,fold change (FC) [10]: 2; fold change (FC) [11]: 205; fold change (FC) [12]: 2; Ratio EC50 (HEK293 [13]): 20
CCCC[C@H](NC(C)=O)C(=O)N[C@H]1CC(=O)NCCCC[C@@H](C(N)=O)NC(=O)CNC(=O)[C@H](Cc2c[nH]c3ccccc23)NC(=O)[C@H](CCCNC(=N)N)NC(=O)[C@@H](Cc2ccc3ccccc3c2)NC(=O)[C@@H]2C[C@H](n3cc(-c4ccccn4)nn3)CN2C1=O,6.78,87.2,31.5,204,4.5,30.1,–

# Now from value to compound, other results behind:
IC50 (Melanocortin receptor 4; read-out: IC50) [nM],inhibition [1] [%],IC50 (Melanocortin receptor 3; read-out: IC50) [nM],IC50 [4] [nM],Compound,Ratio IC50 (HEK293 [2]),Ratio IC50 (HEK293 [5]),further results
2.83,80.7,5.64,0.2,CCCC[C@H](NC(C)=O)C(=O)N[C@H]1CC(=O)NCCCC[C@@H](C(N)=O)NC(=O)CNC(=O)[C@H](Cc2c[nH]c3ccccc23)NC(=O)[C@H](CCCNC(=N)N)NC(=O)[C@@H](Cc2ccc3ccccc3c2)NC(=O)[C@@H]2C[C@H](NC(=O)[C@@H](N)CCC(=O)O)CN2C1=O,2,0.1,Ratio IC50 (HEK293 [3]): 14
6.9,93.7,9.3,10.5,CCCC[C@H](NC(C)=O)C(=O)N[C@H]1CC(=O)NCCCC[C@@H](C(N)=O)NC(=O)CNC(=O)[C@H](Cc2c[nH]c3ccccc23)NC(=O)[C@H](CCCNC(=N)N)NC(=O)[C@@H](Cc2ccc3ccccc3c2)NC(=O)[C@@H]2C[C@H](NC(=O)CC3CCCCC3)CN2C1=O,1.6,1.8,IC50 (Melanocortin receptor 4; read-out: pIC50 (converted)): 5.89 nM
4.48,85.5,42.5,1.71,CCCC[C@H](NC(C)=O)C(=O)N[C@H]1CC(=O)NCCCC[C@@H](C(N)=O)NC(=O)CNC(=O)[C@H](Cc2c[nH]c3ccccc23)NC(=O)[C@H](CCCNC(=N)N)NC(=O)[C@@H](Cc2ccc3ccccc3c2)NC(=O)[C@@H]2C[C@H](n3cc(CCN)nn3)CN2C1=O,9.5,0.4,–
2.97,85.1,8.96,0.25,CCCC[C@H](NC(C)=O)C(=O)N[C@H]1CC(=O)NCCCC[C@@H](C(N)=O)NC(=O)CNC(=O)[C@H](Cc2c[nH]c3ccccc23)NC(=O)[C@H](CCCNC(=N)N)NC(=O)[C@@H](Cc2ccc3ccccc3c2)NC(=O)[C@@H]2C[C@H](NC(=O)[C@@H](N)CCCN)CN2C1=O,3,0.1,Ratio IC50 (HEK293 [3]): 12
9.92,83.5,59.5,68.9,CCCCCCc1cn([C@H]2C[C@H]3C(=O)N[C@H](Cc4ccc5ccccc5c4)C(=O)N[C@@H](CCCNC(=N)N)C(=O)N[C@@H](Cc4c[nH]c5ccccc45)C(=O)NCC(=O)N[C@H](C(N)=O)CCCCNC(=O)C[C@H](NC(=O)[C@H](CCCC)NC(C)=O)C(=O)N3C2)nn1,6,7,–
5.41,84.7,26.4,53.6,CCCC[C@H](NC(C)=O)C(=O)N[C@H]1CC(=O)NCCCC[C@@H](C(N)=O)NC(=O)CNC(=O)[C@H](Cc2c[nH]c3ccccc23)NC(=O)[C@H](CCCNC(=N)N)NC(=O)[C@@H](Cc2ccc3ccccc3c2)NC(=O)[C@@H]2C[C@H](n3cc(-c4ccccc4)nn3)CN2C1=O,4.9,9.9,–
18.8,86.4,130,389,CCCC[C@H](NC(C)=O)C(=O)N[C@H]1CC(=O)NCCCC[C@@H](C(N)=O)NC(=O)CNC(=O)[C@H](Cc2c[nH]c3ccccc23)NC(=O)[C@H](CCCNC(=N)N)NC(=O)[C@@H](Cc2ccc3ccccc3c2)NC(=O)[C@@H]2C[C@H](n3cc(CCC(=O)O)nn3)CN2C1=O,6.9,20.8,–
